Among the data in patent US5981558A, “DC107 derivatives” (Kyowa Hakko Kogyo Co., Ltd., priority 1996, dated 1999) are IC50 values, retold here.

A value given as a limit tells only on which side of the number the result lay.

One assay concerns HeLa S3 cells. Put plainly: HeLa S3 Cell Growth Inhibition Test. To be noted: HeLa S3; 72 hours incubation; Neutral Red; read-out: IC50, HeLa S3 cell growth inhibition. It counts as cell-based. The protocol:
In each well of a 96-well microtiter plate was placed 0.1 mL of HeLa S3 cells having a concentration of 8×10^3 cells/mL and prepared in an MEM culture medium containing 10% fetal bovine serum and 2 mM glutamine. After the cells were incubated overnight at 37° C. in a carbon dioxide incubator, a test compound suitably diluted with a medium was added to the wells in an amount of 0.05 mL for each well. The cells were incubated at 37° C. for 72 hours in a carbon dioxide incubator. After the culture supernatant was removed, 0.1 mL of a culture medium containing 0.02% Neutral Red was added to each well. The cells were then incubated at 37° C. for 1 hour in a carbon dioxide incubator to dye the cells. After the culture supernatant was removed, each residue was rinsed once with physiological saline and the pigment was extracted with 0.001 N hydrochloric acid/30% ethanol. The absorbance at 550 nm of each extract was measured with a microplate reader. The drug concentration required for the 50% inhibition of cell growth, which is referred to as IC50, was calculated by comparing the absorbance for untreated cells with those for cells treated with the drug in known concentrations.
For the compound `COC(=O)[C@H](CCC(=O)OCSC(=O)C(C)(O)C12CC/C(C)=C/C(OC3CCCCO3)C(=O)/C=C/C=C\c3csc(n3)C(C)N(C(=O)C1)[S+]2[O-])NC(=O)[C@@]12O[C@@H](CO)[C@@H](O)[C@@H]1OC(C)(C)O2` (single isomer, unassigned) [Compound 65], the IC50 stood at 3.1 nM.

Staying with this assay, now noted: Homo sapiens, HeLa S3, 72 h, HeLa S3; 72 hours incubation; Neutral Red; read-out: IC50, HeLa S3 cell growth inhibition.
Consider `CC(=O)OCc1oc(=O)oc1CSC(=O)C(C)(O)C12CC/C(C)=C/C(OC3CCCCO3)C(=O)/C=C/C=C\c3csc(n3)C(C)N(C(=O)C1)[S+]2[O-]` (stereo not shown) [Compound 91], for which the IC50 turned out to be 51 nM.
Still for that read-out and setting: to `COC1(OC2/C=C(\C)CCC3(C(C)(O)C(=O)SCOC(=O)CNC(=O)OC(C)(C)C)CC(=O)N(C(C)c4nc(cs4)/C=C\C=C\C2=O)[S+]3[O-])CCOCC1` (stereo not shown) [Compound 39] belongs 2.2 nM; to `COC(=O)Nc1cccc(C(=O)OCSC(=O)C(C)(O)C23CCC(C)=CC(O)C(=O)C=CC=Cc4csc(n4)C(C)N(C(=O)C2)[S+]3[O-])c1` (stereo not shown) [Compound 34], 55 nM.
On the same count and under the same terms, the figure for `CC1=CC(O)C(=O)C=CC=Cc2csc(n2)C(C)N2C(=O)CC(C(C)(O)C(=O)SCOC(=O)CNC(=O)[C@@]34O[C@H]5COC(C)(C)O[C@H]5[C@@H]3OC(C)(C)O4)(CC1)[S+]2[O-]` (stereo partly shown) [Compound 19] is 57 nM; for `CC1=CC(O)C(=O)C=CC=Cc2csc(n2)C(C)N2C(=O)CC(C(C)(O)C(=O)SCOC(=O)CCNC(=O)[C@@]34O[C@H]5COC(C)(C)O[C@H]5[C@@H]3OC(C)(C)O4)(CC1)[S+]2[O-]` (stereo partly shown) [Compound 20] it is 110 nM.
Take `C=C(CSC(=O)C(C)(O)C12CC/C(C)=C/C(O)C(=O)/C=C/C=C\c3csc(n3)C(C)N(C(=O)C1)[S+]2[O-])C(=O)O` (stereo not shown) [Compound 115]: the IC50 was above 10000 nM.
Same read-out and setting: to `COC(=O)CCC(=O)OCSC(=O)C(C)(O)C12CCC(C)=CC(O)C(=O)C=CC=Cc3csc(n3)C(C)N(C(=O)C1)[S+]2[O-]` (stereo not shown) [Compound 1] belongs 7 nM.
The same measure, in the same setting: to `CC(=O)NCC(=O)OCc1oc(=O)oc1CSC(=O)C(C)(O)C12CC/C(C)=C/C(O)C(=O)/C=C/C=C\c3csc(n3)C(C)N(C(=O)C1)[S+]2[O-]` (stereo not shown) [Compound 97] belongs 120 nM; to `COC(=O)[C@H](CCC(=O)OCSC(=O)C(C)(O)C12CCC(C)=CC(O)C(=O)C=CC=Cc3csc(n3)C(C)N(C(=O)C1)[S+]2[O-])NC(=O)c1ccc(OC(C)=O)cc1` (stereo partly shown) [Compound 26], 68 nM; to `C=C(CSC(=O)C(C)(O)C12CC/C(C)=C/C(OC3(OC)CCOCC3)C(=O)/C=C/C=C\c3csc(n3)C(C)N(C(=O)C1)[S+]2[O-])C(=O)O` (stereo not shown) [Compound 116], 8500 nM.
Same read-out and setting: to `CC(=O)Oc1ccc(C(=O)OCSC(=O)C(C)(O)C23CCC(C)=CC(O)C(=O)C=CC=Cc4csc(n4)C(C)N(C(=O)C2)[S+]3[O-])cc1` (stereo not shown) [Compound 30] belongs 15 nM; to `COCCOCCOCC(=O)OCc1oc(=O)oc1CSC(=O)C(C)(O)C12CC/C(C)=C/C(OC3(OC)CCOCC3)C(=O)/C=C/C=C\c3csc(n3)C(C)N(C(=O)C1)[S+]2[O-]` (stereo not shown) [Compound 103], 26 nM; to `CC(=O)Oc1ccc(CCC(=O)OCSC(=O)C(C)(O)C23CCC(C)=CC(O)C(=O)C=CC=Cc4csc(n4)C(C)N(C(=O)C2)[S+]3[O-])cc1` (stereo not shown) [Compound 32], 1.3 nM.
`C=C(CSC(=O)C(C)(O)C12CC/C(C)=C/C(OC3(OC)CCOCC3)C(=O)/C=C/C=C\c3csc(n3)C(C)N(C(=O)C1)[S+]2[O-])C(=O)OC` (stereo not shown) [Compound 113]: the IC50 was 42 nM.
On the same count and under the same terms, the figure for `CC(=O)Oc1ccc(CCCC(=O)OCSC(=O)C(C)(O)C23CCC(C)=CC(O)C(=O)C=CC=Cc4csc(n4)C(C)N(C(=O)C2)[S+]3[O-])cc1` (stereo not shown) [Compound 33] is 11 nM.
Still for that read-out and setting: to `COC1(OC2/C=C(\C)CCC3(C(C)(O)C(=O)SCOC(=O)c4cccc(OC(C)=O)c4)CC(=O)N(C(C)c4nc(cs4)/C=C\C=C\C2=O)[S+]3[O-])CCOCC1` (stereo not shown) [Compound 55] belongs 11 nM.

Still in this assay, the particulars now being: Homo sapiens, HeLa S3, 72 h, read-out: IC50, HeLa S3 cell growth inhibition, HeLa S3; 72 hours incubation; Neutral Red.
For `C/C1=C\C(OC2CCCCO2)C(=O)/C=C/C=C\c2csc(n2)C(C)N2C(=O)CC(C(C)(O)C(=O)SCc3oc(=O)oc3COC(=O)NCCO)(CC1)[S+]2[O-]` (stereo not shown) [Compound 110], the IC50 is 22 nM.
The same measure, in the same setting: to `C/C1=C\C(OC2CCCCO2)C(=O)/C=C/C=C\c2csc(n2)C(C)N2C(=O)CC(C(C)(O)C(=O)SCc3oc(=O)oc3COC(=O)N3CCN(C)CC3)(CC1)[S+]2[O-]` (stereo not shown) [Compound 109] belongs 52 nM; to `COC(=O)CCCCC(=O)OCSC(=O)C(C)(O)C12CCC(C)=CC(O)C(=O)C=CC=Cc3csc(n3)C(C)N(C(=O)C1)[S+]2[O-]` (stereo not shown) [Compound 2], 7.5 nM; to `CC(=O)Oc1cccc(C(=O)OCSC(=O)C(C)(O)C23CCC(C)=CC(O)C(=O)C=CC=Cc4csc(n4)C(C)N(C(=O)C2)[S+]3[O-])c1` (stereo not shown) [Compound 31], 6.2 nM.
The same measure, in the same setting: to `CCCCNC(=O)OCc1oc(=O)oc1CSC(=O)C(C)(O)C12CC/C(C)=C/C(OC3CCCCO3)C(=O)/C=C/C=C\c3csc(n3)C(C)N(C(=O)C1)[S+]2[O-]` (stereo not shown) [Compound 108] belongs 13 nM.
Still for that read-out and setting: to `C/C1=C\C(OC2CCCCO2)C(=O)/C=C/C=C\c2csc(n2)C(C)N2C(=O)CC(C(C)(O)C(=O)SCOC(=O)CNC(=O)[C@@]34O[C@H]5COC(C)(C)O[C@H]5[C@@H]3OC(C)(C)O4)(CC1)[S+]2[O-]` (stereo partly shown) [Compound 43] belongs 24 nM.
Consider `COC(=O)N[C@@H](CCC(=O)OCSC(=O)C(C)(O)C12CCC(C)=CC(O)C(=O)C=CC=Cc3csc(n3)C(C)N(C(=O)C1)[S+]2[O-])C(=O)OC` (stereo partly shown) [Compound 23], for which the IC50 was found to be 58 nM.
The same measure, in the same setting: the figure for `C=C(CSC(=O)C(C)(O)C12CC/C(C)=C/C(O)C(=O)/C=C/C=C\c3csc(n3)C(C)N(C(=O)C1)[S+]2[O-])C(=O)N1CCCCC1` (stereo not shown) [Compound 117] is 2100 nM.
On the same count and under the same terms, to `COC(=O)/C(=C/c1ccccc1)CSC(=O)C(C)(O)C12CC/C(C)=C/C(O)C(=O)/C=C/C=C\c3csc(n3)C(C)N(C(=O)C1)[S+]2[O-]` (stereo not shown) [Compound 120] belongs 270 nM; to `C/C1=C\C(OC2CCCCO2)C(=O)/C=C/C=C\c2csc(n2)C(C)N2C(=O)CC(C(C)(O)C(=O)SCOC(=O)CNC(=O)OC(C)(C)C)(CC1)[S+]2[O-]` (stereo not shown) [Compound 38], 3.8 nM.
On the same count and under the same terms, the figure for `COC(=O)[C@H](CCC(=O)OCSC(=O)C(C)(O)C12CC/C(C)=C/C(OC3CCCCO3)C(=O)/C=C/C=C\c3csc(n3)C(C)N(C(=O)C1)[S+]2[O-])NC(=O)c1ccc(O)cc1` (stereo partly shown) [Compound 71] is 1.2 nM; for `C/C1=C\C(O)C(=O)/C=C/C=C\c2csc(n2)C(C)N2C(=O)CC(C(C)(O)C(=O)SCc3oc(=O)oc3COC(=O)C(C)(C)NC(=O)OC(C)(C)C)(CC1)[S+]2[O-]` (stereo not shown) [Compound 96] it is 29 nM; for `CC1=CC(O)C(=O)C=CC=Cc2csc(n2)C(C)N2C(=O)CC(C(C)(O)C(=O)SCOC(=O)C(C)(C)NC(=O)OC(C)(C)C)(CC1)[S+]2[O-]` (stereo not shown) [Compound 5] it is 55 nM.
In the case of `C=C(CSC(=O)C(C)(O)C12CC/C(C)=C/C(O)C(=O)/C=C/C=C\c3csc(n3)C(C)N(C(=O)C1)[S+]2[O-])C(=O)OC` (stereo not shown) [Compound 111], the IC50 turned out to be 20 nM.
The same measure, in the same setting: to `COCCOCCOCC(=O)OCOC1/C=C(\C)CCC2(C(C)(O)C(=O)SCOC(=O)COCCOCCOC)CC(=O)N(C(C)c3nc(cs3)/C=C\C=C\C1=O)[S+]2[O-]` (stereo not shown) [Compound 36] belongs 20 nM; to `COC(=O)[C@H](CCC(=O)OCSC(=O)C(C)(O)C12CC/C(C)=C/C(OC3CCCCO3)C(=O)/C=C/C=C\c3csc(n3)C(C)N(C(=O)C1)[S+]2[O-])NC(=O)[C@@]12O[C@H]3COC(C)(C)O[C@H]3[C@@H]1OC(C)(C)O2` (stereo partly shown) [Compound 49], 30 nM; to `C/C1=C\C(OC2CCCCO2)C(=O)/C=C/C=C\c2csc(n2)C(C)N2C(=O)CC(C(C)(O)C(=O)SCOC(=O)CCNC(=O)[C@@]34O[C@H]5COC(C)(C)O[C@H]5[C@@H]3OC(C)(C)O4)(CC1)[S+]2[O-]` (stereo partly shown) [Compound 44], 8.6 nM.
Turning to `C/C1=C\C(O)C(=O)/C=C/C=C\c2csc(n2)C(C)N2C(=O)CC(C(C)(O)C(=O)SCOC(=O)CCNC(=O)[C@@]34O[C@@H](CO)[C@@H](O)[C@@H]3OC(C)(C)O4)(CC1)[S+]2[O-]` (stereo partly shown) [Compound 59], the IC50 came out at 1300 nM.

Still in this assay, the particulars now being: Homo sapiens; HeLa S3; 72 hours incubation; Neutral Red; read-out: IC50, HeLa S3 cell growth inhibition.
Consider `C/C1=C\C(OC2CCCCO2)C(=O)/C=C/C=C\c2csc(n2)C(C)N2C(=O)CC(C(C)(O)C(=O)SCOC(=O)c3cccc(OP(=O)(O)O)c3)(CC1)[S+]2[O-]` (stereo not shown) [Compound 73], for which the IC50 came to 1900 nM.
Still for that read-out and setting: to `C/C1=C\C(OC2CCCCO2)C(=O)/C=C/C=C\c2csc(n2)C(C)N2C(=O)CC(C(C)(O)C(=O)SCOC(=O)c3ccc(OP(=O)(O)O)cc3)(CC1)[S+]2[O-]` (stereo not shown) [Compound 72] belongs 650 nM.
On the same count and under the same terms, to `CC[Si](CC)(CC)OCc1oc(=O)oc1CSC(=O)C(C)(O)C12CC/C(C)=C/C(O)C(=O)/C=C/C=C\c3csc(n3)C(C)N(C(=O)C1)[S+]2[O-]` (stereo not shown) [Compound 75] belongs 240 nM; to `CC[Si](CC)(CC)OCc1oc(=O)oc1CSC(=O)C(C)(O)C12CC/C(C)=C/C(OC3CCCCO3)C(=O)/C=C/C=C\c3csc(n3)C(C)N(C(=O)C1)[S+]2[O-]` (stereo not shown) [Compound 76], 260 nM.

Staying with this assay, now noted: read-out: IC50, HeLa S3 cell growth inhibition; HeLa S3; 72 hours incubation; Neutral Red.
As for `C/C1=C\C(OC2CCCCO2)C(=O)/C=C/C=C\c2csc(n2)C(C)N2C(=O)CC(C(C)(O)C(=O)SCOC(=O)CNC(=O)[C@@]34O[C@@H](CO)[C@@H](O)[C@@H]3OC(C)(C)O4)(CC1)[S+]2[O-]` (single isomer, unassigned) [Compound 63], the IC50 came to 270 nM.

As usually defined, the IC50 is the concentration that gives 50% inhibition.
